Calls of active or inactive are those of the source. The rule behind the calls is not given here.
Tests used:
[1] = Toxicity in 2.5 months old SAMP-6 rapid aging mouse model assessed as morphological change in liver administered at 30 mg/kg/day, IG continuously for 3 months in presence of ALN by hematoxylin and eosin staining analysis; type: organism-based; conditions: in vivo, po, 2190 h
Mus musculus [2] = test: Anti osteoporosis in 2.5 months old SAMP-6 rapid aging mouse model assessed as bone mass maintenance administered at 30 mg/kg/day, IG continuously for 3 months; type: functional, organism-based
[3] = Toxicity in 16 months old C57 mouse assessed as change in urea level administered at 30 mg/kg/day, IG continuously for 4 months; type: organism-based; conditions: in vivo, po, 2920 h
Mus musculus [4] = test: Anti osteoporosis in 16 months old C57 mouse assessed as increase in bone mass administered at 30 mg/kg/day, IG continuously for 2 months by micro CT analysis relative to young control group; type: functional, organism-based
Mus musculus [5] = test: Anti osteoporosis in 16 months old C57 mouse assessed as increase in bone mass administered at 30 mg/kg/day, IG continuously for 4 months by micro CT analysis relative to aged control group; type: functional, organism-based
[6] = Toxicity in 2.5 months old SAMP-6 rapid aging mouse model assessed as change in triglyceride level administered at 30 mg/kg/day, IG continuously for 3 months in presence of ALN; type: organism-based; conditions: in vivo, po, 2190 h
[7] = Toxicity in 2.5 months old SAMP-6 rapid aging mouse model assessed as change in creatinine level administered at 30 mg/kg/day, IG continuously for 3 months; type: organism-based; conditions: in vivo, po, 2190 h
[8] = Toxicity in 2.5 months old SAMP-6 rapid aging mouse model assessed as change in serum AST level administered at 30 mg/kg/day, IG continuously for 3 months; type: organism-based; conditions: in vivo, po, 2190 h
[9] = Toxicity in 16 months old C57 mouse assessed as change in triglyceride level administered at 30 mg/kg/day, IG continuously for 4 months; type: organism-based; conditions: in vivo, po, 2920 h
Mus musculus [10] = test: Anti osteoporosis in 16 months old C57 mouse assessed as macrophage level in femur administered at 30 mg/kg/day, IG continuously for 4 months by scRNA-seq analysis (reference value: 1.88%); type: functional; conditions: 2920 h
[11] = Acute toxicity in wildtype 3 days post-fertilization AB zebrafish at more than 10 uM; set-up: species or system Danio rerio; conditions: in vivo, 72 h
[12] = Toxicity in 2.5 months old SAMP-6 rapid aging mouse model assessed as morphological change in liver administered at 30 mg/kg/day, IG continuously for 3 months by hematoxylin and eosin staining analysis; type: organism-based; conditions: in vivo, po, 2190 h
Osteoblast [13] = test: Upregulation of transcription factor HMGA1 expression in 16 months old C57 mouse osteoblast by scRNA-seq analysis; type: functional, cell-based
[14] = Toxicity in 2.5 months old SAMP-6 rapid aging mouse model assessed as morphological change in kidney administered at 30 mg/kg/day, IG continuously for 3 months by hematoxylin and eosin staining analysis; type: organism-based; conditions: in vivo, po, 2190 h
Mus musculus [15] = test: Anti osteoporosis in 2.5 months old SAMP-6 rapid aging mouse model assessed as increase in number of osteoblast per square millimeter of the trabecular bone surface administered at 30 mg/kg/day, IG continuously for 3 months […]; type: functional, organism-based
Mus musculus [16] = test: Anti osteoporosis in 16 months old C57 mouse assessed as osteoblast level in femur administered at 30 mg/kg/day, IG continuously for 4 months by scRNA-seq analysis (reference value: 5.05%); type: functional; conditions: 2920 h
Osteoclast = test: Upregulation of BMP-2 expression in 16 months old C57 mouse osteoclast by scRNA-seq analysis; type: functional, cell-based
Osteoblast [17] = test: Upregulation of transcription factor MYC expression in 16 months old C57 mouse osteoblast by scRNA-seq analysis; type: functional, cell-based
Mus musculus [18] = test: Anti osteoporosis in 16 months old C57 mouse assessed as megakaryocyte level in femur administered at 30 mg/kg/day, IG continuously for 4 months by scRNA-seq analysis (reference value: 1%); type: functional; conditions: 2920 h
[19] = Toxicity in 2.5 months old SAMP-6 rapid aging mouse model assessed as change in urea level administered at 30 mg/kg/day, IG continuously for 3 months in presence of ALN; type: organism-based; conditions: in vivo, po, 2190 h
[20] = Toxicity in 16 months old C57 mouse assessed as change in total protein level administered at 30 mg/kg/day, IG continuously for 4 months; type: organism-based; conditions: in vivo, po, 2920 h
[21] = Toxicity in 2.5 months old SAMP-6 rapid aging mouse model assessed as morphological change in kidney administered at 30 mg/kg/day, IG continuously for 3 months in presence of ALN by hematoxylin and eosin staining analysis; type: organism-based; conditions: in vivo, po, 2190 h
[22] = Toxicity in 2.5 months old SAMP-6 rapid aging mouse model assessed as change in serum ALT level administered at 30 mg/kg/day, IG continuously for 3 months; type: organism-based; conditions: in vivo, po, 2190 h
Osteoblast [23] = test: Regulation of osteogenesis in 16 months old C57 mouse osteoblast endoplasmic reticulum assessed as increase in Hsp90ab1 gene by scRNA-seq analysis; type: functional, cell-based
Mus musculus [24] = test: Anti osteoporosis in 16 months old C57 mouse assessed as reconstruction of bone microstructure administered at 30 mg/kg/day, IG continuously for 4 months by micro CT analysis relative to young control group; type: functional, organism-based
Osteoblast [25] = test: Upregulation of transcription factor […] expression in 16 months old C57 mouse osteoblast by scRNA-seq analysis; type: functional, cell-based
[26] = Toxicity in 2.5 months old SAMP-6 rapid aging mouse model assessed as change in urea level administered at 30 mg/kg/day, IG continuously for 3 months; type: organism-based; conditions: in vivo, po, 2190 h
Mus musculus [27] = test: Anti osteoporosis in 16 months old C57 mouse assessed as increase in bone mass in femur from proximal end to the distal end administered at 30 mg/kg/day, IG continuously for 2 to 4 months by micro CT analysis relative to aged control group; type: functional, organism-based; conditions: time 2-4 months
Mus musculus [28] = test: Anti osteoporosis in 16 months old C57 mouse assessed as dendritic cell level in femur administered at 30 mg/kg/day, IG continuously for 4 months by scRNA-seq analysis (reference value: 1.34%); type: functional; conditions: 2920 h
MC3T3-E1 = test: Induction of ALP activity in mouse MC3T3-E1 cells in osteogenic differentiation culture at 1 uM measured on day 7; type: functional, cell-based; conditions: time 7.0 day
Mus musculus [29] = test: Anti osteoporosis in 2.5 months old SAMP-6 rapid aging mouse model assessed as upregulation of serum BMP2 administered at 30 mg/kg/day, IG continuously for 3 months […]; type: functional, organism-based
Osteoblast [30] = test: Regulation of osteogenesis in 16 months old C57 mouse osteoblast endoplasmic reticulum assessed as increase in Hsph1 gene by scRNA-seq analysis; type: functional, cell-based
Mus musculus [31] = test: Anti osteoporosis in 16 months old C57 mouse assessed as increase in bone mass administered at 30 mg/kg/day, IG continuously for 2 months by micro CT analysis relative to aged control group; type: functional, organism-based
[32] = Toxicity in 2.5 months old SAMP-6 rapid aging mouse model assessed as change in creatinine level administered at 30 mg/kg/day, IG continuously for 3 months in presence of ALN; type: organism-based; conditions: in vivo, po, 2190 h
Osteocyte = test: Upregulation of BMP-2 expression in 16 months old C57 mouse osteocytes by scRNA-seq analysis; type: functional, cell-based
Mus musculus [33] = test: Anti osteoporosis in 16 months old C57 mouse assessed as chondroblast level in femur administered at 30 mg/kg/day, IG continuously for 4 months by scRNA-seq analysis (reference value: 2.49%); type: functional; conditions: 2920 h

With `COc1ccc2cc(C(=O)NCCN(C)C)oc2c1.CS(=O)(=O)O` the Activity [1] was “Non-Toxic”, the Activity (Mus musculus [2]) was “Active” and the Activity [3] was “Non-Toxic”. The Activity (Mus musculus [4]) was “inactive”, the Activity (Mus musculus [5]) was “Active” and the Activity [6] was “Non-Toxic”. For the same compound, the Activity [7] was “Non-Toxic”, the Activity [8] was “Non-Toxic” and the Activity [9] was “Non-Toxic”. The Activity (Mus musculus [10]) was 1.33%, the Activity [11] was “Toxic” and the Activity [12] was “Non-Toxic”. The Activity (Osteoblast [13]) was “Active”, the Activity [14] was “Non-Toxic” and the Activity (Mus musculus [15]) was “Active”. For the same compound, the Activity (Mus musculus [16]) was 15.03%, the Activity (Osteoclast) was “Active” and the Activity (Osteoblast [17]) was “Active”. For the same compound, the Activity (Mus musculus [18]) was 0.78%, the Activity [19] was “Non-Toxic” and the Activity [20] was “Non-Toxic”. For the same compound, the Activity [21] was “Non-Toxic”, the Activity [22] was “Non-Toxic” and the Activity (Osteoblast [23]) was “Active”. The Activity (Mus musculus [24]) was “Active”, the Activity (Osteoblast [25]) was “Active” and the Activity [26] was “Non-Toxic”. For the same compound, the Activity (Mus musculus [27]) was “Active”, the Activity (Mus musculus [28]) was 0.68% and the Activity (MC3T3-E1) was “Active”. The Activity (Mus musculus [29]) was “Active”, the Activity (Osteoblast [30]) was “Active” and the Activity (Mus musculus [31]) was “inactive”. The Activity [32] was “Non-Toxic”, the Activity (Osteocyte) was “Active” and the Activity (Mus musculus [33]) was 3.77%.

Reference: ChEMBL document CHEMBL5380777, “Efficacy, Mechanism, and Structure-Activity Relationship of 6-Methoxy Benzofuran Derivatives as a Useful Tool for Senile Osteoporosis” (J Med Chem, 2023)
